Assay results taken from patent US7199267B1, “Recognition of oligiosaccaride molecular targets by polycationic small molecule inhibitors and treatment of immunological disorders and infectious diseases” (MediQuest Therapeutics, Inc., priority 2005, dated 2007).

Tests used:
[1] = BODIPY-TR-cadaverine (BC) fluorescence displacement assay for LPS binding affinity; settings: purified re-synthesized leads; half-maximal effective displacement of probe; 50 mM Tris buffer, pH 7.4; read-out: Binding affinity (BC displacement) ED50 value
Description: Quantitative Estimation of LPS Binding Affinity. The relative binding affinities of the entire library of analogs with a recently-described high-throughput fluorescence based displacement assay, is examined using BODIPY-TR cadaverine (BC).^81;82 Results are reported as half-maximal effective displacement of probe (ED50). In all experiments, Polymyxin B (PMB), a decapeptide antibiotic, known to bind and neutralize LPS,^83–86 is used as a reference compound.
Rapid-throughput Fluorescence Displacement Assay for quantifying binding affinities to LPS. The BODIPY-TR-cadaverine (BC; (5-(((4-(4,4-difluoro-5-(2-thienyl)-4-bora-3a,4a-diaza-s-indacene-3-yl) phenoxy)acetyl)amino)pentylamine, hydrochloride; obtained from Molecular probes, Inc., Eugene, Oreg.) displacement assay to quantify the affinities of binding of compounds to LPS has been described in detail recently.^81 This assay is performed in a rapid-throughput format as follows: the first column (16 wells) of a Corning Nonbinding Surface 384-well flat-bottom black fluorescence microplate contain 15 test compounds plus polymyxin B, all at 5 mM in DMSO, and are serially diluted two-fold in 50 mM Tris buffer, pH 7.4, across the remaining 23 columns, achieving a final dilution of 0.596 nM in a volume of 40 μl. Polymyxin B (PMB), a peptide antibiotic known to bind and neutralize LPS^95 serve as the positive control and reference compound for every plate, enabling the quantitative assessment of repeatability and reproducibility (CV and Z′ factors) for the assay. Automated liquid handling is performed on a Precision 2000 automated microplate pipetting system, programmed using the Precision Power software, Bio-Tek Instruments Inc., VT, USA.

[2] = test system: murine macrophage J774A.1 cells; experiment: Nitric oxide assay (Griess): inhibition of LPS-induced NO production; assay type: cell-based; settings: purified re-synthesized leads; 10 ng/ml LPS stimulation, 16 h; read-out: NO inhibition in murine J774 cells IC50 value
Procedure: Assessment of neutralization of LPS toxicity: NO inhibition activity. Murine monocytes (J774.A1 cells) produce measurable quantities of NO upon exposure to LPS and provide a high-throughput and validated model for the rapid and quantitative assessment of compounds in neutralizing the toxicity of LPS.^81;82;94 Compounds that neutralize LPS inhibit NO production in a dose-dependent manner from which 50% inhibitory concentrations (IC50) were determined (FIG. 4). The analogs determined to have the highest affinity in the BC-binding assay are then assayed in this NO inhibition assay (Table 1). Results in this assay parallel those in the binding assay (FIG. 5). Nitric Oxide Assay. Nitric oxide production is measured as total nitrite in murine macrophage J774A.1 cells using the Griess assay^96 as described previously.^94 J774A.1 cells are plated at ˜10^5/ml in a volume of 40 μl/well, in 384-well, flat-bottomed, cell culture treated microtiter plates and subsequently stimulated with 10 ng/ml lipopolysaccharide (LPS). Concurrent to LPS stimulation, serially diluted concentrations of test compounds are added to the cell medium and left to incubate overnight for 16 h. Polymyxin B is used as reference compound in each plate. Positive- (LPS stimulation only) and negative-controls (J774A. 1 medium only) are included in each experiment. Nitrite concentrations are measured by adding 40 μl of supernatant to equal volumes of Griess reagents ([…]; 0.1% NED solution in ddH2O and 1% sulfanilamide, 5% phosphoric acid solution in ddH2O) and incubating for 15 minutes at room temperature in the dark. Absorbance at 535 nm is measured using a Molecular Devices Spectramax M2 multifunction plate reader (Sunnyvale, Calif.). Nitrite concentrations are interpolated from standard curves obtained from serially diluted sodium nitrite standards.

Compound	EC50 [1] [µM]	IC50 [2] [µM]
CCCCCCCCCCCCCCCCCCNCC(=O)NC(Cc1ccccc1)C(=O)NCCOCCN (centres unmarked) [compound 1002]	12.4	17.6
CCCCCCCCCCCCCCCCCCNCCC(=O)NC(Cc1ccccc1)C(=O)NCCOCCN (centres unmarked) [compound 1007]	2.54	2.79
CCCCCCCCCCCCCCCCCCNCCCC(=O)NC(Cc1ccccc1)C(=O)NCCOCCN (centres unmarked) [compound 1012]	7.68	3.78
CCCCCCCCCCCCCCCCCCNCC(=O)NC(Cc1cnc[nH]1)C(=O)NCCOCCN (centres unmarked) [compound 1032]	13.1	1.64
CCCCCCCCCCCCCCCCCCNCCC(=O)NC(Cc1cnc[nH]1)C(=O)NCCOCCN (centres unmarked) [compound 1037]	3.17	1.88
CCCCCCCCCCCCCCCCCCNCCCC(=O)NC(Cc1cnc[nH]1)C(=O)NCCOCCN (centres unmarked) [compound 1042]	5.38	1.86
CCCCCCCCCCCCCCCCCCNCC(=O)NCC(=O)NCCOCCN [compound 1047]	14	11.5
CCCCCCCCCCCCCCCCCCNCCC(=O)NCC(=O)NCCOCCN [compound 1052]	14.2	1.84
CCCCCCCCCCCCCCCCCCNCC(=O)NC(Cc1ccccc1)C(=O)NCCCN (centres unmarked) [compound 1092]	8.8	6.74
CCCCCCCCCCCCCCCCCCNCCC(=O)NC(Cc1ccccc1)C(=O)NCCCN (centres unmarked) [compound 1097]	4.13	8.7
CCCCCCCCCCCCCCCCCCNCCCC(=O)NC(Cc1ccccc1)C(=O)NCCCN (centres unmarked) [compound 1102]	5.75	3.42
CCCCCCCCCCCCCCCCCCNCC(=O)NC(Cc1cnc[nH]1)C(=O)NCCCN (centres unmarked) [compound 1122]	4.87	6.9
CCCCCCCCCCCCCCCCCCNCCC(=O)NC(Cc1cnc[nH]1)C(=O)NCCCN (centres unmarked) [compound 1127]	6.86	8.06
CCCCCCCCCCCCCCCCCCNCCCC(=O)NC(Cc1cnc[nH]1)C(=O)NCCCN (centres unmarked) [compound 1132]	3.01	1.83
CCCCCCCCCCCCCCCCCCNCCC(=O)NC(Cc1ccccc1)C(=O)NCCCCCN (centres unmarked) [compound 1187]	3850	4.88
CCCCCCCCCCCCCCCCCCNCCCC(=O)NC(Cc1ccccc1)C(=O)NCCCCCN (centres unmarked) [compound 1192]	7.51	4.8
CCCCCCCCCCCCCCCCCCNCC(=O)NC(Cc1cnc[nH]1)C(=O)NCCCCCN (centres unmarked) [compound 1212]	12.1	2.04
CCCCCCCCCCCCCCCCCCNCCCC(=O)NC(Cc1cnc[nH]1)C(=O)NCCCCCN (centres unmarked) [compound 1222]	18.7	0.9
CCCCCCCCCCCCCCCCCCNCC(=O)NCCCN [compound 2322]	3.8	5.56
CCCCCCCCCCCCCCCCCCNCCC(=O)NCCCN [compound 2323]	9.92	7.49
CCCCCCCCCCCCCCCCCCNCC(=O)NCCOCCN [compound 2326]	12.2	9.73
CCCCCCCCCCCCCCCCCCNCCC(=O)NCCOCCN [compound 2328]	9.16	6.54
CCCCCCCCCCCCCCCCCCNCCCC(=O)NCCOCCN [compound 2330]	5.73	5

Results, then the molecule that gave them:

EC50 [1] [µM]	IC50 [2] [µM]	Compound
10.8	3.33	CCCCCCCCCCCCCCCCCCNCCCC(=O)NCC(=O)NCCOCCN [compound 1057]
6.61	7.94	CCCCCCCCCCCCCCCCCCNCC(=O)NCC(=O)NCCCN [compound 1137]
2420	5.26	CCCCCCCCCCCCCCCCCCNCCC(=O)NCC(=O)NCCCN [compound 1142]
6.14	6.57	CCCCCCCCCCCCCCCCCCNCCCC(=O)NCC(=O)NCCCN [compound 1147]
28.2	3.27	CCCCCCCCCCCCCCCCCCNCC(=O)NCC(=O)NCCCCCN [compound 1227]
11.2	4.61	CCCCCCCCCCCCCCCCCCNCCC(=O)NCC(=O)NCCCCCN [compound 1232]
9.77	3.22	CCCCCCCCCCCCCCCCCCNCCCC(=O)NCC(=O)NCCCCCN [compound 1237]
6.21	4.87	CCCCCCCCCCCCCCCCCCNCCCC(=O)NCCCN [compound 2324]
8.74	3.96	CCCCCCCCCCCCCCCCCCNCC(=O)NCCCCCN [compound 2325]
4.03	1.08	CCCCCCCCCCCCCCCCCCNCCC(=O)NCCCCCN [compound 2327]
7.61	2.07	CCCCCCCCCCCCCCCCCCNCCCC(=O)NCCCCCN [compound 2329]
